Test results from patent US20050054103A1, “Expansion of renewable stem cell populations using modulators of PI 3-kinase” (priority 2003, published 2005).
Values belong to the molecule of their own block, whether it stands above or below them.

Experiments:
[1] = test system: CD34 cells; test: Transition metal chelators in CD34+ cell liquid cultures (cell number, CD34 cells, clonability); assay type: cell-based, human
Procedure: The interphase layer of mononuclear cells were collected, washed three times with Ca/Mg free phosphate buffered saline containing 1% bovine serum albumin (BSA). The cells were incubated for 30 min. at 4° C. with murine monoclonal anti CD34 antibody (0.5 μg/10^6 mononuclear cells) and thereafter isolated using the miniMACS apparatus (Miltenyi-Biotec, Bergisch, Gladbach, Germany) according to the manufacturer's protocol.
Culture procedures: For the expansion of progenitor cells, CD34^+ enriched fractions or unseparated mononuclear cells were seeded at about 1-3×10^4 cells/ml in either alpha minimal essential medium containing 10% preselected fetal calf serum (FCS) (both from GIBCO, Grand Island, N.Y.), or serum-free medium (Progenitor-34 medium, Life Technologies, Grand Island, N.Y.). The media were supplemented with a mixture of growth factors and transition metal chelators. The cultures were incubated at 37° C. in an atmosphere of 5% CO2 in air with extra humidity. Half of the medium was changed weekly with fresh medium containing all the supplements.
Cloning potential evaluations: The cloning potential of cells developed in the liquid culture was assayed, at different intervals, in semi-solid medium. The cells were washed and seeded in 35 mm dishes in methylcellulose containing alpha medium supplemented with recombinant growth factors (SCF, G-CSF, GM-CSF and EPO). Following 2 weeks incubation, the cultures were scored with an inverted microscope. Colonies were classified as blast, mixed, erythroid, myeloid, and megakaryocytic, according to their cellular composition.
Morphological assessment: In order to characterize the resulting culture populations, aliquots of cells were deposited on a glass slide (cytocentrifuge, Shandon, Runcorn, UK), fixed and stained in May-Grunwald Giemsa. Other aliquots were stained by benzidine for intracellular hemoglobin.
Immunofluorescence staining: At different intervals, cells from the liquid cultures were assayed for CD34 antigen. Aliquots were harvested, washed and incubated on ice with FITC-labeled anti CD45 monoclonal antibody and either PE-labeled anti CD34 (HPCA-2) monoclonal antibody or PE-labeled control mouse Ig. After incubation, red cells were lysed with lysing solution, while the remaining cells were washed and analyzed by flow cytometer.
Flow cytometry: Cells were analyzed and sorted using FACStar^plus flow cytometer (Becton-Dickinson, Immunofluorometry systems, Mountain View, Calif.). Cells were passed at a rate of 1,000 cells/second through a […] nozzle, using saline as the sheath fluid. […] The PMTs was set at the appropriate voltage. Logarithmic amplification was applied for measurements of fluorescence and linear amplification—for forward light scatter. At least 10^4 cells were analyzed.
Cord blood-derived CD34 cells were plated in liquid culture in the presence of: FL—50 ng/ml, SCF—50 ng/ml, IL-6—50 ng/ml, with or without IL-3—20 ng/ml, with or without TEPA—10 μM. On day 7, the percentage of CD34 cells and the total cell number were determined. Aliquots equivalent to 1×10^3 initiating cells were assayed on days 0 and 7 for colony forming cells (CFU) by cloning in semi-solid medium. CFU expansion represents the ratio of CFU present on day 7 to CFU present on day 0.
CD34^+ cells derived from human neonatal cord blood were purified by immunomagnetic method and then cultured in liquid medium supplemented with cytokines either with or without transition metal chelators. At weekly intervals, the cultures were demi-depopulated by removing half of the culture content (supernatant and cells) and replacing it with fresh medium, cytokines and the chelators. At the indicated weeks the cellular content of the cultures were quantified for total cells (by a manual microscopic/hemocytometric method), for CD34^+ cells (by immuno-flow cytometry) and for clonogenic cells (by cloning the cells in cytokine-supplemented semi-solid medium).

[2] = test system: HL-60 (human myeloid leukemia cell line); test: Inhibition / induction of differentiation and growth inhibition of HL-60 cells by chelators; assay type: cell-based; conditions: 1000 nM
Text: (§1) FIG. 44 provides the chemical structure of the various chelators employed in these experiments.

[3] = test system: HL-60 cells; test: Copper determination in chelator treated cells (atomic absorption); assay type: cell-based, human
Procedure: Copper Determination: Cells were harvested by centrifugation at 1000×g for 5 minutes. The cell pellet was washed three times by re-suspending the cells in PBS (Ca^++ and Mg^++ free) and centrifugation at 1000×g. An aliquot containing 2×10^6 cells was then transferred into a metal-free Eppendorf tube and the cells were recovered by centrifugation at 1000×g. The cell pellet was re-suspended in 0.03 M ultra-pure nitric acid to give a concentration of 1×10^7 cells/ml. The cells were homogenized with a high shear mixer (polytron, Kinematica, Switzerland) for 1 minutes to disrupt the cell and release intracellular copper content. Cell samples were vortexed before transferring to a vial autosampler and analyzed in duplicate by a Perkin Elmer graphite furnace atomic absorption spectrophotometer at a wavelength of 324.7 nm. The samples were analyzed against copper standard solution prepared from a commercial stock solution that was diluted with 0.03 M ultra pure nitric acid.
as §1

[4] = test system: Lin− c-kit+ Sca-1+ murine hematopoietic precursors; conditions: cultured 7 days; cited from earlier work
[5] = test system: CD34+ cells; test: Ex vivo expansion of CD34+ cells with the PI 3-kinase inhibitor Ly294002; assay type: cell-based, human
Procedure: Mononuclear cell fraction collection and purification: Human blood cells were obtained from umbilical cord blood from female patients following full-term, normal delivery (informed consent was obtained). Samples were collected and processed within 12 hours postpartum. […] Louis, Mo.), sedimented for 30 minutes to remove most red blood cells. The leukocyte-rich fraction was harvested and layered on a Ficoll-Hypaque gradient (1.077 gram/ml; Sigma), and centrifuged at 400 g for 30 minutes. […] Sigma, St. Louis, Mo.). Purification of CD34^+ cells from mononuclear cell fractions: To purify CD34^+ mononuclear cells, the mononuclear cell fraction was subjected to two cycles of immuno-magnetic separation using the MiniMACS® or […]® CD34 Progenitor Cell Isolation Kit (Miltenyi Biotec, Auburn, Calif.) as per manufacturer's recommendations. The purity of the CD34^+ population obtained ranged from 95% to 98%, as determined by flow cytometry (see below). Ex vivo expansion: Purified CD34+ cells were cultured in culture bags (American Fluoroseal Co. Gaithersburg, Md., USA) at a concentration of 1×10^4 cells/ml in MEMα/10% FCS containing the following human recombinant cytokines: […] The cultures were replenished weekly, for three weeks, with the same volume of fresh medium, Ly294002 and growth factors. From week three and up to the termination of the experiments the cultures were weekly demi-depopulated. Cells were counted following staining with trypan blue. At various time points, harvested cells were used to assay the content of colony forming units in culture (CFUc), enumeration of CD34+ cells following re-selection and immunophenotype analysis. Cell morphology was determined on cytospin (Shandon, Pittsburgh, Pa., USA) prepared smears stained with May-Grunwald/Giemsa solutions. Surface antigen analysis: The cells were washed with a PBS solution containing 1% BSA, and stained (at 4° C. for 30 min) with fluorescein isothiocyanate (FITC)- or phycoerythrin (PE)-conjugated antibodies. The cells were then washed in the above buffer and analyzed using a FACScalibur® flow cytometer (Becton Dickinson, San Jose, Calif., USA). The cells were passed at a rate of up to 1000 cells/second, using a 488 nm argon laser beam as the light source for excitation. Emission of 10^4 cells was measured using logarithmic amplification, and analyzed using the CellQuest software (Becton Dickinson). Determination of CD34+ cell content after expansion: The content of CD34+ cells was determined from a purified, re-selected fraction of expanded hematopoietic progenitor cells, using the MiniMACS CD34 progenitor cell isolation kit (Miltenyi Biotec) according to the manufacturers recommendations. In brief, mononuclear cells derived from one portion of the culture were subjected to two cycles of immunomagnetic bead separation. The purity of the CD34+ population thus obtained was 95-98%, as evaluated by flow cytometry. CD34+ cell content of the entire culture was calculated as follows: number of CD34+ cells recovered following repurification after expansion multiplied by the culture volume/volume of the portion of the culture subjected to repurification (CD34+total=CD34+ in sample×total culture volume/volume of repurified sample). Up to week three the cultures were topped weekly with fresh medium. Therefore, the culture volume was measured directly. From week three and on (due to demi-depopulation), the culture volume was calculating by multiplying the actual volume with the number of passages. Fold expansion was calculated by dividing the CD34+ cell content of the culture by the number of inoculated CD34+ cells (Fold expansion=total CD34+ content/CD34+ inoculated). […] Determination of early CD34+ cell subsets: The percentages of the early CD34+ cell subsets were determined as well from the re-purified CD34+ cell fraction. […]

[6] = cited from earlier work
[7] = test system: cord blood-derived CD34+ cells; test: Copper-chelating peptides in CD34 cell cultures (proliferation, clonability); assay type: cell-based, human; conditions: after 7 weeks; peptides 10 μM each, G-CSF and GM-CSF 10 ng/ml each
Procedure: CD34 cells selection: Peripheral blood “buffy coat” cells derived from a whole blood unit, peripheral blood cells obtained following leukapheresis, or blood cells were layered on Ficoll-Hypaque (density 1.077 g/ml) and centrifuged at 1,000×g for 20 minutes at room temperature. The interphase layer of mononuclear cells were collected, washed three times with Ca/Mg free phosphate buffered saline containing 1% bovine serum albumin (BSA). The cells were incubated for 30 minutes at 4° C. with murine monoclonal anti CD34 antibody (0.5 μg/10^6 […] cells) and thereafter isolated using the miniMACA apparatus (Miltenyi-Biotec, Bergisch, Gladbach, Germany) according to the manufacturer's protocol.
Culture procedures: For the expansion of progenitor cells, CD34^+ enriched fractions were seeded at 1×10^4 cells/ml in alpha minimal essential medium containing 10% preselected fetal calf serum (FCS) (both from GIBCO, Grand Island, N.Y.). The medium was supplemented with a mixture of growth factors and Copper chelators. The cultures were incubated at 37° C. in an atmosphere of 5% CO2 in air with extra humidity. Half of the medium was changed weekly with fresh medium containing all the supplements.
The cloning potential of the cultured cells was assayed in semi-solid medium. The cells were washed and seeded in 35 mm dishes in methylcellulose containing alpha medium supplemented with 30% FCS and further with recombinant growth factors (stem cell factor (SCF), G-CSF, GM-CSF and erythropoietin (EPO)). Following two week incubation, the cultures were scored with an inverted microscope. Colonies were classified as blast, mixed, erythroid, myeloid, and megakaryocytic, according to their cellular composition.
The effect of Copper-chelating peptides on proliferation and clonability in CD34 cell cultures: Cultures were initiated with 10^4 cord blood-derived CD34^+ cells by plating purified cells in liquid medium in the presence of SCF, FLT3 and IL-6 (50 ng/ml each) and the Copper-binding peptides, Gly-Gly-His (GGH) or Gly-His-Lys (GHL) (10 μM each), or the late-acting cytokines G-CSF and GM-CSF (10 ng/ml each). At weekly intervals, the cultures were demi-depopulated and supplemented with fresh medium, cytokines and the peptides. After 7 weeks, cells were counted and assayed for CFUc.

[8] = Cytokines + Ly294002, two weeks
[9] = Cytokines + Ly294002, two weeks, percentage of re-purified CD34+ cells

Average Intracellular ppb Cu ([3]; 20 μM chelator): 27.5 ppb
Average Intracellular ppb Cu ([3]; 100 μM chelator): 73.9 ppb
Molecule: C1CNCCNCCNCCN1 [1,4,7,10-Tetraaza cyclododecane]
effect on differentiation of CD34+ cells [1]: stimulate differentiation
Differentiation Induction [2]: Toxic
Average Intracellular ppb Cu ([3]; 500 μM chelator): Toxic
activity at 20 µM ([3]; Homo sapiens, HL-60, 20 μM chelator, read-out: Average Intracellular Cu (% of control)): 56%
activity at 100 µM ([3]; Homo sapiens, HL-60, 100 μM chelator, read-out: Average Intracellular Cu (% of control)): 150%

Molecule: Cc1ccc(C2=CCC(C)(C)c3ccc(C#Cc4ccc(C(=O)O)cc4)cc32)cc1 [AGN 193109]
increase in the pre-CFU-S population [4]: approximately 6 fold

Molecule: O=c1cc(N2CCOCC2)oc2c(-c3ccccc3)cccc12 [LY294002]
CD34 + CD38- ×10^4 [5, 8]: 4.8 ×10^4
CD34 + Lin- ×10^4 [5, 8]: 1.3 ×10^4
CD34 × 10^4 [5, 8]: 53 × 10^4
TNC × 10^4 [5, 8]: 155 × 10^4
CD34 + CD38- (%) [5, 9]: 9.1%
CD34 + Lin- (%) [5, 9]: 2.5%
absolute content of CD34+CD38− cells ([5]; two weeks): 9×10^4 cells
absolute content of CD34+CD38−Lin− cells ([5]; two weeks): 2.5×10^4 cells
content of late progenitor, CD34+ cells ([5]; two weeks, treated cultures): 65×10^4 cells
frequency of CD34+ cells among the total cultured cells ([5]; two-weeks treatment): 0.3
membrane permeability [6]: membrane permeable

Molecule: Gly-Gly-His [GGH]
effect on differentiation of CD34+ cells [1]: stimulate differentiation
decrease of cell number [7]: 10%
decrease of clonogenic potential (CFUc) [7]: 80%

Molecule: Gly-His-Lys [GHL]
effect on differentiation of CD34+ cells [1]: stimulate differentiation
decrease of cell number [7]: 25%
decrease of clonogenic potential (CFUc) [7]: 78%
